Assay results from US20240300923A1, “IRAK4 Inhibitors” (ASTRAZENECA AB, priority 2022, published 2024).

How the values were obtained:
IRAK4 [1] = target: T1, IRAK4 (Homo sapiens (Human), UniProt Q9NWZ3); test: IRAK4 enzyme assay (mass spectrometry readout); assay type: biochemical; conditions: human recombinant IRAK4 0.2 nM, 3 mM ATP; geometric mean of at least 2 experiments
Experimental: Potency of IRAK4 Inhibitor Compounds in IRAK4 Enzyme Assay
The inhibitory activity of compounds against IRAK4 were determined in an enzymatic assay using mass spectrometry readout. Ten point half-log compound concentration response curves, with a top concentration of 1 μM or 10 μM, were generated from 10 mM stocks of compound solubilized in DMSO using an Echo 655 (Labcyte Inc) and added to 384 well assay plates (Greiner #781280). To the assay plates, 10 μL of human recombinant IRAK4 protein (Life Technologies #PV4002) diluted to a final concentration of 0.2 nM in assay buffer (50 mM Tris-HCl pH 7.4, 10 mM MgCl, 5 mM glutathione, 0.01% BSA, 3 mM ATP) was added. The enzyme was incubated with the compounds at room temperature for 15 minutes before a peptide substrate ([…], Innovagen custom synthesis, 10 mM in DMSO) was added to each well to a final concentration of 10 μM using an Echo 655 (Labcyte Inc). After two hours at room temperature, the reaction was stopped with 65 μL of 0.4% formic acid (Merck #33015). The unphosphorylated and phosphorylated peptide were measured by LC-MS/MS on a Waters TQ-S mass spectrometer. Peaks were integrated using the TargetLynx software and the ratios between phosphorylated and unphosphorylated peptides were calculated. Curves were fitted and compound potencies determined in Genedata Screener 19 (Genedata AG). IC50 values are the geometric mean of at least 2 experiments.

IRAK4 [2] = target: T1, IRAK4; test: IRAK4 phosphorylation cell assay (IL-1β-stimulated Karpas-299 cells); assay type: cell-based; conditions: IRAK4 auto-phosphorylation (pIRAK4 Thr345/Ser346) in IL-1β-stimulated Karpas-299 cells; geometric mean of at least 2 experiments
Experimental: IRAK4 Phosphorylation Cell Assay
The activation of IRAK4 by TLR or IL-1R ligands leads to IRAK4 auto-phosphorylation, which can be prevented by IRAK4 kinase inhibitors. The effect of IRAK4 inhibitor compounds on IRAK4 auto-phosphorylation was assessed in IL-1β-stimulated Karpas-299 cells as a measurement of cellular potency. Karpas-299 cells were cultured in RPMI 1640 (Gibco 61870-010) containing 10% FBS (Gibco #10270). Cells were plated at 2×10^4 cells per well in poly-D-lysine coated 384 well plates (Corning #356663) to which compounds had been added at various concentrations (10 point half log dose response with a final top concentration of 30 μM) using an Echo 655 (Labcyte Inc). Cells were centrifuged (250 g, 4 mins), incubated at 37° C. for 1 h, then stimulated with 22.7 ng/mL recombinant IL-1β (R&D Systems, #201-LB-025) at 37° C. for 10 mins, followed by fixation in 4% paraformaldehyde for 20 mins and permeabilization in ice-cold 70% MeOH in PBS for 30 mins. Cells were washed twice with phosphate-buffered saline (PBS) on a BlueWasher (BlueCatBio) then blocked with PBS containing 10% FBS for 20 mins. Blocking solution was removed with a BlueWasher and cells were stained with anti-pIRAK4 (Thr345/Ser346) (CST, #11927, 1:400) in blocking buffer with 0.05% Tween-20 for 1 h, then washed twice with PBS containing 0.05% Tween-20 on a BlueWasher, followed by staining with a Alexa 647-conjugated secondary anti-rabbit IgG antibody (CST, #4414, 1:2,000) and Hoechst 33342 (Sigma, 1:2,000) in blocking buffer with 0.05% Tween-20 for 30 mins. Finally, the cells were washed twice with PBS containing 0.05% Tween-20 and imaged on an ImageXpress Micro (Molecular Devices) with a 10× air objective using the appropriate filters. Images were analysed in Columbus (PerkinElmer) and the fluorescence intensity per cell from the secondary antibody was quantified. The quantified data were analysed in Genedata Screener 19 (Genedata AG). […] IC50 values are the geometric mean of at least 2 experiments.

human cKit kinase = human cKit kinase (Homo sapiens (Human), UniProt P10721); test: cKit enzyme assay (LANCE, Eurofins CEREP); assay type: biochemical; conditions: human recombinant enzyme, 50 μM ATP; geometric mean of at least n=2, * = single experiment
Chain of human cKit kinase (P10721 26-976): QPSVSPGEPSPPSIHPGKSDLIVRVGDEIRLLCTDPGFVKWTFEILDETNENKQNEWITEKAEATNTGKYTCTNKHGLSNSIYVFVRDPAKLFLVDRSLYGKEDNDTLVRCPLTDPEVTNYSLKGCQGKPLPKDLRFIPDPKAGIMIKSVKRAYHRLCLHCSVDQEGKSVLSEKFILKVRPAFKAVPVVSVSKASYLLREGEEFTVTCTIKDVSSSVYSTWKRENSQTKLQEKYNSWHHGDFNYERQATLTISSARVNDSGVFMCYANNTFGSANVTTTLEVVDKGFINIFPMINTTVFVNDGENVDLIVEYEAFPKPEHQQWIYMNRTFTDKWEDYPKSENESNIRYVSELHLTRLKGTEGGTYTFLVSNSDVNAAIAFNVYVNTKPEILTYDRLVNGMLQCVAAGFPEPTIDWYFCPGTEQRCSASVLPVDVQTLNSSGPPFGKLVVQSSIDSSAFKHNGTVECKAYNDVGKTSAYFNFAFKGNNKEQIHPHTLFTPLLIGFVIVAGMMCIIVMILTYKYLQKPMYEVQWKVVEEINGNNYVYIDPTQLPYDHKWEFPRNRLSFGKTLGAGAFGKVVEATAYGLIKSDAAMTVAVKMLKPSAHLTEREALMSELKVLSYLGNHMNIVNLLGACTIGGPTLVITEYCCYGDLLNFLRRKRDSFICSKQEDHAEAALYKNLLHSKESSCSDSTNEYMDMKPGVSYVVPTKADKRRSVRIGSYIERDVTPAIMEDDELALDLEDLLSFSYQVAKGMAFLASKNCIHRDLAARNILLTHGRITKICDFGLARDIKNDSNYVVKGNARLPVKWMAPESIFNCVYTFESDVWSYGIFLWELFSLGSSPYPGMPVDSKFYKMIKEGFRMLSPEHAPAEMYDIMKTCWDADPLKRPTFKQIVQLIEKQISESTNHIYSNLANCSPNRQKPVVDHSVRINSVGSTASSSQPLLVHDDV
Experimental: Potency of IRAK4 Inhibitor Compounds in cKit Enzyme Assay
Evaluation of the effects of the IRAK4 inhibitor compounds on the activity of the human cKit kinase quantified by measuring the phosphorylation of the substrate Ulight-TK peptide using a human recombinant enzyme and the LANCE® detection method at Eurofins CEREP, catalog item 3070, SOP no 1C768: The test compound, reference compound or water (control) are mixed with the enzyme (0.38 ng) in a buffer containing 40 mM Hepes/Tris (pH 7.4), 0.8 mM EGTA/Tris, 8 mM MgCl2, 1.6 mM DTT and 0.008% Tween 20. Thereafter, the reaction is initiated by adding 100 nM of the substrate Ulight-TK peptide and 50 μM ATP, and the mixture is incubated for 30 min at room temperature. For control basal measurements, the enzyme is omitted from the reaction mixture. Following incubation, the reaction is stopped by adding 13 mM EDTA. After 5 min, the anti-phopho-PT66 antibody labeled with europium chelate is added. After 60 more min, the fluorescence transfer is measured at lex=337 nm, lem=620 nm and lem=665 nm using a microplate reader (Envision, Perkin Elmer). The enzyme activity is determined by dividing the signal measured at 665 nm by that measured at 620 nm (ratio). The results are expressed as a percent inhibition of the control enzyme activity. The standard inhibitory reference compound is staurosporine, which is tested in each experiment at several concentrations to obtain an inhibition curve from which its IC50 value is calculated.
Data presented are the geometric mean of at least n=2, or as denoted by an*are obtained from a single experiment. […] Kinase selectivity can be a key determinant of clinical utility as off target toxicity can be reduced or eliminated.

T1 sequence (Q9NWZ3 whole entry): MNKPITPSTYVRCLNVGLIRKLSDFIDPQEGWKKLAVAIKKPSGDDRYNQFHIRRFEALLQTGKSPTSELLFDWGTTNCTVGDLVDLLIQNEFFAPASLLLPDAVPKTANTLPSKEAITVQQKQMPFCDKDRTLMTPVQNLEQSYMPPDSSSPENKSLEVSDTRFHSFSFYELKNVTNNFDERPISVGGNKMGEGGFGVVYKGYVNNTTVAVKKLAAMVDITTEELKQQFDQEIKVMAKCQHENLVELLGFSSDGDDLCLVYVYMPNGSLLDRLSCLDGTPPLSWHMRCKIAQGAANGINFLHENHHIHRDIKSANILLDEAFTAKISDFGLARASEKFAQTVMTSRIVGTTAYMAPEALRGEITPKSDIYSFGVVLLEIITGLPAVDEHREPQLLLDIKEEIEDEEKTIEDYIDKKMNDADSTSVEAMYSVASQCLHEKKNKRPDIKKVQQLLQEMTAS

For COc1cc2nn([C@H]3CC[C@H](n4ccccc4=O)CC3)cc2cc1C(=O)Nc1cccn(C)c1=O [Example 22, 6-Methoxy-N-(1-methyl-2-oxo-1,2-dihydropyridin-3-yl)-2-((1r,4r)-4-(2-oxopyridin-1(2H)-yl)cyclohexyl)-2H-indazole-5-carboxamide], the IC50 (IRAK4 [1]) was 0.5 nM, the IC50 (IRAK4 [2]) was 26 nM and the IC50 (human cKit kinase) was 26200 nM.

In the case of COc1cc2nn([C@H]3CC[C@H](N(C)C(=O)[C@@H](C)O)CC3)cc2cc1C(=O)Nc1cccn(C2CC2)c1=O [Example 12, N-(1-Cyclopropyl-2-oxo-1,2-dihydropyridin-3-yl)-2-((1R,4r)-4-((R)-2-hydroxy-N-methylpropanamido)cyclohexyl)-6-methoxy-2H-indazole-5-carboxamide], the IC50 (IRAK4 [1]) is reported as 0.6 nM, the IC50 (IRAK4 [2]) is reported as 24 nM and the IC50 (human cKit kinase) is reported as 58200 nM.

Work on COc1cc2nn([C@H]3CC[C@H](n4ccnc4C(C)O)CC3)cc2cc1C(=O)Nc1cccn(C)c1=O (single isomer, unassigned) [Example 28, 2-((1r,4r)-4-(2-(1-hydroxyethyl)-1H-imidazol-1-yl)cyclohexyl)-6-methoxy-N-(1-methyl-2-oxo-1,2-dihydropyridin-3-yl)-2H-indazole-5-carboxamide] yielded an IC50 (IRAK4 [1]) of 0.5 nM, an IC50 (IRAK4 [2]) of 31 nM and an IC50 (human cKit kinase) of 10600 nM.

In the case of COc1cc2nn([C@H]3CC[C@H](n4ccnc4C(C)O)CC3)cc2cc1C(=O)Nc1cccn(C)c1=O (single isomer, unassigned) [Example 29, 2-((1r,4r)-4-(2-(1-hydroxyethyl)-1H-imidazol-1-yl)cyclohexyl)-6-methoxy-N-(1-methyl-2-oxo-1,2-dihydropyridin-3-yl)-2H-indazole-5-carboxamide], the IC50 (IRAK4 [1]) is reported as 0.6 nM, the IC50 (IRAK4 [2]) is reported as 19 nM and the IC50 (human cKit kinase) is reported as 8400 nM.

With COc1cc2nn([C@H]3CC[C@H](N(C)C(=O)[C@@H](C)O)CC3)cc2cc1C(=O)Nc1cccn(-c2cnn(C)n2)c1=O [Example 17, 2-((1R,4r)-4-((R)-2-Hydroxy-N-methylpropanamido)cyclohexyl)-6-methoxy-N-(1-(2-methyl-2H-1,2,3-triazol-4-yl)-2-oxo-1,2-dihydropyridin-3-yl)-2H-indazole-5-carboxamide] the IC50 (IRAK4 [1]) was 1.1 nM, the IC50 (IRAK4 [2]) was 34 nM and the IC50 (human cKit kinase) was > 100000 nM.

For COc1cc2nn([C@H]3CC[C@H](N(C)C(=O)[C@@H](C)O)CC3)cc2cc1C(=O)Nc1cccn(C2COC2)c1=O [Example 13, 2-((1R,4r)-4-((R)-2-Hydroxy-N-methylpropanamido)cyclohexyl)-6-methoxy-N-(1-(oxetan-3-yl)-2-oxo-1,2-dihydropyridin-3-yl)-2H-indazole-5-carboxamide], the IC50 (IRAK4 [1]) was 0.7 nM, the IC50 (IRAK4 [2]) was 30 nM and the IC50 (human cKit kinase) was > 50000 nM.

COc1cc2nn([C@H]3CC[C@H](N4CCCC4=O)CC3)cc2cc1C(=O)Nc1cccn(C)c1=O [Example 18, 6-Methoxy-N-(1-methyl-2-oxo-1,2-dihydropyridin-3-yl)-2-((1r,4r)-4-(2-oxopyrrolidin-1-yl)cyclohexyl)-2H-indazole-5-carboxamide] gave an IC50 (IRAK4 [1]) of 1 nM, an IC50 (IRAK4 [2]) of 32 nM and an IC50 (human cKit kinase) of 2400 nM.

For COc1cc2nn([C@@H]3CC[C@H](N(C)C(C)=O)C[C@@H]3C)cc2cc1C(=O)Nc1cccn(C)c1=O (single isomer, unassigned) [Example 7], the IC50 (IRAK4 [1]) was 459 nM and the IC50 (IRAK4 [2]) was 4500 nM.

COc1cc2nn([C@H]3CC[C@H](N4CCN(C)C4=O)CC3)cc2cc1C(=O)Nc1cccn(C)c1=O [Example 19, 6-Methoxy-N-(1-methyl-2-oxo-1,2-dihydropyridin-3-yl)-2-((1r,4r)-4-(3-methyl-2-oxoimidazolidin-1-yl)cyclohexyl)-2H-indazole-5-carboxamide] showed an IC50 (IRAK4 [1]) of 0.9 nM, an IC50 (IRAK4 [2]) of 34 nM and an IC50 (human cKit kinase) of 10600 nM.

With COc1cc2nn([C@@H]3CCC(N(C)C(C)=O)C[C@H]3C)cc2cc1C(=O)Nc1cccn(C)c1=O (single isomer, unassigned) [Example 3] the IC50 (IRAK4 [1]) was 0.7 nM, the IC50 (IRAK4 [2]) was 21 nM and the IC50 (human cKit kinase) was 13700 nM.

Molecule COc1cc2nn([C@H]3CC[C@H](N(C)C(=O)[C@@H](C)O)CC3)cc2cc1C(=O)Nc1cccn(-c2cn[nH]c2)c1=O [Example 14, 2-((1R,4r)-4-((R)-2-Hydroxy-N-methylpropanamido)cyclohexyl)-6-methoxy-N-(2-oxo-1-(1H-pyrazol-4-yl)-1,2-dihydropyridin-3-yl)-2H-indazole-5-carboxamide] has an IC50 (IRAK4 [1]) of 0.3 nM and an IC50 (IRAK4 [2]) of 15 nM.

With COc1cc2nn([C@H]3CC[C@H](n4ccnn4)CC3)cc2cc1C(=O)Nc1cccn(C)c1=O [Example 27, 2-((1r,4r)-4-(1H-1,2,3-Triazol-1-yl)cyclohexyl)-6-methoxy-N-(1-methyl-2-oxo-1,2-dihydropyridin-3-yl)-2H-indazole-5-carboxamide] the IC50 (IRAK4 [1]) was 1.5 nM, the IC50 (IRAK4 [2]) was 39 nM and the IC50 (human cKit kinase) was > 100000 nM.

Molecule COc1cc2nn([C@H]3CC[C@H](N(C)C(=O)[C@@H](C)O)CC3)cc2cc1C(=O)Nc1cccn(CF)c1=O [Example 9, N-(1-(Fluoromethyl)-2-oxo-1,2-dihydropyridin-3-yl)-2-((1R,4r)-4-((R)-2-hydroxy-N-methylpropanamido)cyclohexyl)-6-methoxy-2H-indazole-5-carboxamide] has an IC50 (IRAK4 [1]) of 0.4 nM, an IC50 (IRAK4 [2]) of 15 nM and an IC50 (human cKit kinase) of 3300 nM.

With COc1cc2nn(C3CCC(c4cccnn4)CC3)cc2cc1C(=O)Nc1cccn(C)c1=O (single isomer, unassigned) [Example 23, 6-Methoxy-N-(1-methyl-2-oxo-1,2-dihydropyridin-3-yl)-2-(4-(pyridazin-3-yl)cyclohexyl)-2H-indazole-5-carboxamide] the IC50 (IRAK4 [1]) was 5 nM and the IC50 (IRAK4 [2]) was 185 nM.

COc1cc2nn([C@H]3CC[C@]4(CC3)COC(=O)N4C)cc2cc1C(=O)Nc1cccn(C)c1=O [Example 21, 6-Methoxy-N-(1-methyl-2-oxo-1,2-dihydropyridin-3-yl)-2-((5r,8r)-1-methyl-2-oxo-3-oxa-1-azaspiro[4.5]decan-8-yl)-2H-indazole-5-carboxamide] showed an IC50 (IRAK4 [1]) of 0.4 nM and an IC50 (IRAK4 [2]) of 20 nM.

COc1cc2nn([C@@H]3CC[C@H](N(C)C(C)=O)C[C@@H]3C)cc2cc1C(=O)Nc1cccn(C)c1=O (single isomer, unassigned) [Example 6] was tested, and the IC50 (IRAK4 [1]) was 199 nM and the IC50 (IRAK4 [2]) was 2880 nM.

COc1cc2nn([C@@H]3CCC(N(C)C(C)=O)C[C@H]3C)cc2cc1C(=O)Nc1cccn(C)c1=O (single isomer, unassigned) [Example 2] was tested, and the IC50 (IRAK4 [1]) was 10.7 nM and the IC50 (IRAK4 [2]) was 238 nM.
